Patent US6783985B1, “Gene disruption methodologies for drug target discovery” (Elitra Pharmaceuticals Inc., priority 2000, dated 2004)

Tests used:
CaERG11 GRACE strain = assay: Target level variation whole cell assay, CaERG11 GRACE strain; type: cell-based, Candida albicans
Source text: (§1) Moreover, these experiments clearly indicate how distinct levels of target gene products synthesized within the pathogen could be directly applied in whole cell assay based drug screens to identify novel antifungal compounds against those novel drug targets validated using the GRACE method.

[1] = system: S. cerevisiae bar-coded strains bearing heterozygous mutations in HIS3, TUB1, ALG7, and ERG11; details: grown together in a mixed population; targets HIS3, TUB1, ALG7, ERG11 respectively; cited from earlier work
CaERG11 = details: determined biochemically; cited from earlier work
C. albicans = assay: Sensitivity of C. albicans to selection antibiotics; type: cell-based, Candida albicans
Source text: Several art-known methods are available to create a heterozygote mutant. In less preferred embodiments, auxotrophic markers, such as but not limited to CaURA3, CaHIS3, CaLEU2, or CaTRP1, could be used for gene disruption if desired. However, the preferred method of heterozygote construction in diploid fungi employs a genetically modified dominant selectable marker. C. albicans is sensitive to the nucleoside-like antibiotic streptothricin at a concentration of 200 micrograms per milliliter. The presence of the Escherichia coli SAT1 gene within C. albicans allows acetylation of the drug rendering it nontoxic and permitting the strain to grow in the presence of streptothricin at a concentration of 200 micrograms per milliliter. Expression of the SAT1 gene in C. albicans is made possible by engineering the gene so that its DNA sequence is altered to conform to the genetic code of this organism and by providing a CaACT1 promoter (Morschhauser et al. (1998) Mol. Gen. Genet. 257:412-420) and a CaPCK1 terminator sequence (Leuker et al. (1997) Gene 192: 235-40). This genetically modified marker is referred to as CaSAT1 which is the subject of a copending United States nonprovisional application, filed Feb. 16, 2001. […]

CaALG7 GRACE strain = assay: Target level variation whole cell assay, CaALG7 GRACE strain; type: cell-based, Candida albicans
Source text: as §1

[2] = system: wild type (diploid) CaHIS3 strain, CaHIS3 heterozygote strain and tetracycline promoter-regulated CaHIS3 GRACE strain; assay: Target level variation whole cell assay: 3-AT sensitivity of CaHIS3 strains; type: cell-based, Candida albicans; details: for sensitivity of partially repressed (minimally expressing) CaHIS3 GRACE strain relative to heterozygous CaHIS3 strain: intermediate 3-AT concentration, threshold tetracycline (FIG. 6C, 6D)
Source text: as §1, with “The data derived from” for “Moreover,”, “that” for “how”, “compounds active” for “compounds”, “against” for “against those”
3-AT is a competitive inhibitor of the enzyme encoded by CaHIS3, imidazoleglycerol phosphate dehydratase, and together serve as a model for a drug and drug target respectively. […] The phenotype observed is consistent with that expected in light of the predicted 7.5 fold overexpression of CaHIS3 determined by Northern bolt analysis (see FIG. 5). […] A third CaHIS3 expression level evaluated for differential sensitivity to 3-AT was produced by partial repression of the GRACE CaHIS3 strain using a threshold concentration of tetracycline 0.1% […].
as §1

[3] = intermediate 3-AT concentration (FIG. 6B)

In the case of `OC(Cn1cncn1)(Cn1cncn1)c1ccc(F)cc1F` [fluconazole], the “GRACE strain-specific phenotypes on increasing and decreasing expression of the drug target CaERG11” value (CaERG11 GRACE strain) is listed as “drug resistance and sensitivity phenotypes”, the “sensitivity of the strain heterozygous for the compound's drug target versus other heterozygote bar-coded strains” value [1] is listed as “significantly greater sensitivity” and the “mode of action, static or cidal” value (CaERG11) is listed as “static”.

In the case of `CN(CC[C@H](N)CC(=O)N[C@H]1C=C[C@H](n2ccc(N)nc2=O)O[C@@H]1C(=O)O)C(=N)N` [blasticidin], the “sensitivity of C. albicans to the fungicidal compound” value (C. albicans) is reported as “sensitive”.

In the case of tunicamycin, the “GRACE strain-specific phenotypes on increasing and decreasing expression of the drug target CaALG7” value (CaALG7 GRACE strain) is listed as “drug resistance and sensitivity phenotypes” and the “sensitivity of the strain heterozygous for the compound's drug target versus other heterozygote bar-coded strains” value [1] is listed as “significantly greater sensitivity”.

In the case of streptothricin, the “sensitivity of C. albicans to the antibiotic” value (C. albicans; streptothricin at 200 micrograms per milliliter) is reported as “sensitive”.

In the case of `CCCCNC(=O)n1c(NC(=O)OC)nc2ccccc21` [benomyl], the “sensitivity of the strain heterozygous for the compound's drug target versus other heterozygote bar-coded strains” value [1] is given as “significantly greater sensitivity”.

With `Nc1nc[nH]n1` [3-AT, 3-aminotriazole] the “phenotype of CaHIS3 GRACE strain overexpressing CaHIS3 (constitutive tetracycline promoter expression)” value ([2]; 3-AT concentrations that completely inhibit wild type and heterozygote (FIG. 6A)) was “resistance”, the “growth of wild type and CaHIS3 heterozygote strains” value ([2]; inhibitory levels of 3-AT (FIG. 6A)) was “completely inhibit growth” and the “effect on wild type and tetracycline promoter-based overproducing CaHIS3 strains” value [2, 3] was “unable to effect”. For the same compound, the “sensitivity of heterozygous CaHIS3 strain (haploinsufficient phenotype)” value [2, 3] was “enhanced sensitivity”, the “sensitivity of partially repressed (minimally expressing) CaHIS3 GRACE strain relative to heterozygous CaHIS3 strain” value [2] was “enhanced drug sensitivity” and the “sensitivity of partially repressed (minimally expressing) CaHIS3 GRACE strain relative to heterozygous CaHIS3 strain” value ([2]; listed as 3-aminotriazole) was “hypersensitivity”. The “sensitivity of the strain heterozygous for the compound's drug target versus other heterozygote bar-coded strains” value [1] was “significantly greater sensitivity”.
